This note sets out measurements from patent US20050070480A1, “Peptide arginals and methods for treating disseminated intravascular coagulation” (priority 2001, published 2005).

Read-outs that look alike come from different tables or passages of the source. Non-standard residues stand in square brackets, D forms with d. Residues, ends and D or L forms follow the SMILES beside them. dNMeChg = CN[C@@H](C(=O)O)C1CCCCC1; Aze = O=C(O)[C@@H]1CCN1

One assay concerns the target plasmin (PL) (Homo sapiens, UniProt P00747). Description: Fibrin plate assay, plasmin. Format: biochemical. The note with it: reduction of lysed area to 50% of control, read-out: LA50 PL. From the text: (§1) Inhibitory effects of the compounds of the invention on plasmin (PL) and plasmin generation by plasminogen (Plogen) activators, such as tissue plasminogen activator (tPA), and urokinase (UK) were examined by the fibrin plate assay. (See e.g., Bagdy, D., Barabás, E., Bajusz, S., and Széll, E., Thromb. Haemostas., 67:325-330 (1992); Barabás, E. Szell, E. and Bajusz, S, Blood Coagulation and Fibrinolysis, 4: 243 (1993)) The results are shown in Table 1, Column C. With a few exceptions the analogues are somewhat more inhibitory than Efegatran against the three fibrinolytic enzymes.

A further assay has as its target urokinase (UK) (Homo sapiens, UniProt P00749). In words: Fibrin plate assay, urokinase. The note with it: reduction of lysed area to 50% of control, urokinase, read-out: LA50 UK. Format: biochemical.
Description: as §1

The target of the next assay is clot-bound factor Xa (Homo sapiens, UniProt P00742). Description: Enzyme inhibition in platelet-rich plasma clots, chromogenic substrate Moc-D-Chg-Gly-Arg-pNA. Format: biochemical. The protocol: (§2) Tos-Gly-Pro-Arg-pNA (S1) for thrombin and Moc-D-Chg-Gly-Arg-pNA (S2) for factor Xa, as published (Bajusz, S. et al.: PCT Pub. No. WO97/46576) briefly. The assays were carried out at room temperature in glass tubes and 96-well microtiter plates.
(§3) Solutions, (i) Buffer A: 0.1 M sodium phosphate/0.05 M NaCl (pH 8.5). (ii) Inhibitors: 0.1, 1.0 and 10 mg/ml solutions in buffer A containing 0.02% human albumin. (iii) Substrates: 1 mM of S1 and 2 mM of S2 in distilled water.
(§4) (b) Preparation of plasma clots. Platelet rich plasma samples (200 μl) placed in glass tubes were incubated at room temperature with 80 μl 40 mM CaCl2 for 60 min. The clots were washed with 2 ml aliquots of saline (0.9% NaCl) with gentle agitation to remove unbound enzymes In case of successful washing the optical density of the reaction mixture of wash and S1 is less than 5% of the control. The plasma clot thus obtained was kept under saline in the tube until use.
(§5) (c) Assessment of the enzyme inhibition in the clots. After removal of saline, the plasma clot was incubated at 37° C. with 400 μl inhibitor (or buffer A as negative control) for 5 min. and with 100 μl substrate S1 or S3 for 30 min., then the reaction was stopped with 100 μl 50% acetic acid. 150 μl portions of the reaction mixtures were placed in the wells of a microtiter plate and read at 405 nm (ELISA READER 800, Bio-Tek Instruments Inc. Winooski, Vt., USA). IC50 values were generated from the extinction data graphically.

Another assay has as its target clot-bound thrombin (Homo sapiens, UniProt P00734). Description: Enzyme inhibition in platelet-rich plasma clots, chromogenic substrate Tos-Gly-Pro-Arg-pNA. Format: biochemical. The note with it: for IC50: clot-bound thrombin, platelet-rich plasma clot. Here is the method: as §2, §3, §4, §5
Assay [1] addresses tissue plasminogen activator (tPA) (Homo sapiens, UniProt P00750). In words: Fibrin plate assay, tissue plasminogen activator. In kind it is biochemical. The note with it: reduction of lysed area to 50% of control, read-out: LA50 tPA.
Description: as §1

The test system of assay [2] is citrated human plasma. In words: Prothrombin time (PT) plasma clotting assay. Format: biochemical. Here is the method:
(§6) The inhibitory effect on plasma coagulation was evaluated in the thrombin time (TT), activated partial thromboplastin time (APTT) and prothrombin time (PT) assays by using citrated human plasma as substrate [Bagdy, D. et. al.: Thromb. Haemostas. 67, 325 (1992)]. The TT assay measures the inhibition of a single step, the coagulation of fibrinogen on the action of exogenous thrombin (final concentration 2.5 NIH U/ml). Clotting of plasma in the APTT and PT assays was induced by recalcification. Endogenous thrombin generated could theoretically be present at a final concentration as high as 50 NIH U/ml (APTT, PT). These assays detect the sum of inhibitory actions on fibrin formation and thrombin generation, which includes several proteolytic reactions mediated by either thrombin or other enzymes, e.g. fXa. Anticlotting activity is expressed in CT2, which is the concentration (nM) required to double the clotting time.

Assay [3] deals with citrated human plasma. In words: Activated partial thromboplastin time (APTT) plasma clotting assay. In kind it is biochemical. Here is the method:
as §6

The test system of another assay is LPS-treated rats. Description: Survival in a rat model for disseminated intravascular coagulation. Format: in vivo. Conditions: for Effectiveness on survival compared with reference C (in words): LPS-treated rats; for Survival rate %: rats, 30 mg/kg LPS i.v.
For assay [4], the system named is citrated human plasma (exogenous thrombin). In words: Thrombin time (TT) plasma clotting assay. Format: biochemical. The note with it: thrombin 2.5 NIH U/ml. Here is the method:
as §6

Assay [5] has as its system endotoxin-treated rabbits. Format: in vivo, rabbit.
[6] abbreviates: 0.75 mg/kg bolus + infusion, 0 hours.
Where [7] appears, read: 0.75 mg/kg bolus + infusion, 4 hours.
The mark [8] stands for this setting: 0.75 mg/kg bolus + infusion, 5 hours.
Where [9] appears, read: 0.75 mg/kg bolus + infusion, 6 hours.
The mark [10] stands for this setting: 0.75 mg/kg bolus + infusion, 7 hours.
Setting [11] is: 0.75 mg/kg bolus + infusion, 8 hours.
Setting [12] is: 1.5 mg/kg bolus + infusion, 0 hours.
Where [13] appears, read: 1.5 mg/kg bolus + infusion, 4 hours.
[14] abbreviates: 1.5 mg/kg bolus + infusion, 5 hours.
[15] abbreviates: 1.5 mg/kg bolus + infusion, 6 hours.
Where [16] appears, read: 1.5 mg/kg bolus + infusion, 7 hours.
The mark [17] stands for this setting: 1.5 mg/kg bolus + infusion, 8 hours.
Where [18] appears, read: endotoxin-treated rabbits, 0.5 mg/kg/h infusion.
Setting [19] is: endotoxin-treated rabbits, 50 U/kg/h.
[20] abbreviates: endotoxin-treated rabbits, 100 U/kg/h.

tissue plasminogen activator (tPA), sequence (P00750 36-562, species assumed): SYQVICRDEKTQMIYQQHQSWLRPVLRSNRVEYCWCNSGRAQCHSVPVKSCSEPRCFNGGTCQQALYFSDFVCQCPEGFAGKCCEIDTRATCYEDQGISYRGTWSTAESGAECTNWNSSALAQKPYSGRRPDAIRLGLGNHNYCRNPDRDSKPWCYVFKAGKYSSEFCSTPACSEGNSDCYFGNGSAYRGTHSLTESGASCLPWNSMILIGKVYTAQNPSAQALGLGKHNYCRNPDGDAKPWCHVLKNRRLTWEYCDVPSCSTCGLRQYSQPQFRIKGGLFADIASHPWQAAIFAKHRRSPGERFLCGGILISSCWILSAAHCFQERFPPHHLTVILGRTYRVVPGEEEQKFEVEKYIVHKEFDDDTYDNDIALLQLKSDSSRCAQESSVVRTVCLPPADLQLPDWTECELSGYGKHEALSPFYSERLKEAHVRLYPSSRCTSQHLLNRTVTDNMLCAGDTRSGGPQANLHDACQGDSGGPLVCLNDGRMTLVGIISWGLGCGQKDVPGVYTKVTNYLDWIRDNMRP
plasmin (PL), sequence (P00747 581-810 limits assumed, species assumed): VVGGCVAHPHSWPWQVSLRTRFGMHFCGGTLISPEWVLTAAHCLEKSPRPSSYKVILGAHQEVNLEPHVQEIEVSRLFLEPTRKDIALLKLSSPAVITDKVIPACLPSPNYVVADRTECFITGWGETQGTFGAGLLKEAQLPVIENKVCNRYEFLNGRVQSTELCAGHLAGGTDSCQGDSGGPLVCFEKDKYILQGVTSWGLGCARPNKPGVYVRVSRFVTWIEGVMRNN
plasmin (PL), sequence (P00747 97-580 limits assumed, species assumed): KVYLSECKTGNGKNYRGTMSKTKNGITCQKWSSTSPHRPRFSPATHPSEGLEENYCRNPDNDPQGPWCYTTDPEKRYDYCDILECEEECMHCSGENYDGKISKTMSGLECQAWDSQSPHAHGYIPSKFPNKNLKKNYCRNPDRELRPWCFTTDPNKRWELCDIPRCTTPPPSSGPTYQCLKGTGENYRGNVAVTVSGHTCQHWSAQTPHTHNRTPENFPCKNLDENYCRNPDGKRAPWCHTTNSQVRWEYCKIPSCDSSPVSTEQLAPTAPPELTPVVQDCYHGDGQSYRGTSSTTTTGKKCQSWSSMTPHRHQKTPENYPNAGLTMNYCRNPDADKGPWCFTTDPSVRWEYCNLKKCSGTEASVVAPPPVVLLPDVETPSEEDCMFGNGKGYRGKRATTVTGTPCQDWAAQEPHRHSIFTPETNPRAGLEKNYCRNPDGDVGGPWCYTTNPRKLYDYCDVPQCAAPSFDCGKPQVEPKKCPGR
clot-bound factor Xa, sequence (P00742 235-488 limits assumed): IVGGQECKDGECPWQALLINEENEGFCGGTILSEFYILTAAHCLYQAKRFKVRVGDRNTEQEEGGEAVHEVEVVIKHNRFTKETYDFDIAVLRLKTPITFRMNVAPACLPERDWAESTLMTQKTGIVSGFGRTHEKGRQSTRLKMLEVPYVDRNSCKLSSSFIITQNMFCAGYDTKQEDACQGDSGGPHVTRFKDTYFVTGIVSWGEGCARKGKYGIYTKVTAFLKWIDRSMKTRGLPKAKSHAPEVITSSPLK
clot-bound factor Xa, sequence (P00742 41-179 limits assumed): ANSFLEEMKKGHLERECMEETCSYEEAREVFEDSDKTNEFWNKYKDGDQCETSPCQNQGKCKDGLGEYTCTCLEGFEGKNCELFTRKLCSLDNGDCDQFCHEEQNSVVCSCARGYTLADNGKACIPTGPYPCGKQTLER

As to `CN[C@H](CC1CCCCCC1)C(=O)N1CCC[C@H]1C(=O)N[C@H](C=O)CCCNC(=N)N` [Compound 2, N-methyl-D-cycloheptylalanyl-L-prolyl-L-arginine aldehyde], the IC50 at plasmin (PL) amounted to 16 µM; at urokinase (UK) it was 18 µM; against clot-bound factor Xa, 0.102 µM; on clot-bound thrombin, 0.093 µM; in [1], 14 µM. Further, the “Inhibition of clot-bound thrombin compared with Efegatran (in words)” value at clot-bound thrombin is “surpass Efegatran”. In the assay with citrated human plasma [2], the “CT2 PT (concentration required for doubling the clotting time)” value (shortened to “CT2 PT”) amounted to 876 nM. The “CT2 APTT (concentration required for doubling the clotting time)” value (“CT2 APTT” below) in the assay with citrated human plasma [3] amounted to 315 nM. The “Effectiveness on survival compared with reference C (in words)” value in the assay with LPS-treated rats is “more effective than reference C”. For the same molecule, the Survival rate % in the assay with LPS-treated rats (setting [6]) is reported as 100%; with LPS-treated rats (setting [7]), 86%; with LPS-treated rats (setting [8]) it was 78%; in the assay on LPS-treated rats (setting [9]) it was 57%; in the assay with LPS-treated rats (setting [10]), 57%; in the assay on LPS-treated rats (setting [11]), 50%. For the same molecule, the Survival rate % in the assay on LPS-treated rats (1.0 mg/kg bolus + infusion, 0 hours) is recorded as 100%; with LPS-treated rats (1.0 mg/kg bolus + infusion, 4 hours), 100%; in the assay with LPS-treated rats (1.0 mg/kg bolus + infusion, 5 hours), 100%; in the assay on LPS-treated rats (1.0 mg/kg bolus + infusion, 6 hours), 100%; in the assay with LPS-treated rats (1.0 mg/kg bolus + infusion, 7 hours) it was 90%; with LPS-treated rats (1.0 mg/kg bolus + infusion, 8 hours), 90%. The Survival rate % with LPS-treated rats (setting [12]), in the assay with LPS-treated rats (setting [13]), with LPS-treated rats (setting [14]), in the assay with LPS-treated rats (setting [15]), in the assay with LPS-treated rats (setting [16]) and with LPS-treated rats (setting [17]) was 100% throughout. Besides, the “CT2 TT (concentration required for doubling the clotting time)” value (“CT2 TT” below) in [4] worked out at 118 nM.

On to `CN[C@@H](C(=O)N1CC[C@H]1C(=O)N[C@H](C=O)CCCNC(=N)N)C1CCCCC1` [Compound 4, N-methyl-D-cyclohexylglycyl-L-azetidine-2-carbonyl-L-arginine aldehyde] (H-[dNMeChg]-[Aze]-Arg-aldehyde), for which the IC50 at plasmin (PL) turned out to be 32 µM; at urokinase (UK) it was 16 µM; on clot-bound factor Xa, 0.457 µM; against clot-bound thrombin, 0.245 µM; in [1], 12 µM. For the same molecule, the “Inhibition of clot-bound thrombin compared with Efegatran (in words)” value on clot-bound thrombin is recorded as “surpass Efegatran”. For the same molecule, the “CT2 PT” value with citrated human plasma [2] amounted to 2921 nM. The “CT2 APTT” value with citrated human plasma [3] turned out to be 677 nM. Also, in the assay on LPS-treated rats, the “Effectiveness on survival compared with reference C (in words)” value is recorded as “more effective than reference C”. For the same molecule, the Survival rate % with LPS-treated rats (0.5 mg/kg bolus + infusion, 0 hours) came to 100%; in the assay on LPS-treated rats (0.5 mg/kg bolus + infusion, 4 hours), 93%; in the assay on LPS-treated rats (0.5 mg/kg bolus + infusion, 5 hours), 87%; with LPS-treated rats (0.5 mg/kg bolus + infusion, 6 hours), 87%; in the assay on LPS-treated rats (0.5 mg/kg bolus + infusion, 7 hours), 87%; with LPS-treated rats (0.5 mg/kg bolus + infusion, 8 hours), 80%. The Survival rate % in the assay on LPS-treated rats (setting [6]) is on record as 100%; in the assay with LPS-treated rats (setting [7]), 100%; in the assay with LPS-treated rats (setting [8]), 100%; in the assay with LPS-treated rats (setting [9]), 100%; with LPS-treated rats (setting [10]), 92%; with LPS-treated rats (setting [11]), 85%. Also, the Survival rate % with LPS-treated rats (setting [12]), in the assay on LPS-treated rats (setting [13]), in the assay with LPS-treated rats (setting [14]), in the assay with LPS-treated rats (setting [15]), with LPS-treated rats (setting [16]) and in the assay with LPS-treated rats (setting [17]) was 100% throughout. Besides, the “CT2 TT” value in assay [4] worked out at 101 nM.

In the case of `N=C(N)NCCC[C@@H](C=O)NC(=O)[C@@H]1CCCN1C(=O)[C@H](O)C1CCCCCC1` [Compound C1, reference compound], the “Effect on lethality of endotoxin-treated rabbits (in words)” value in [5] (compared with endotoxin alone) is “no effect on lethality”. The “Lethality %, 2 hrs” value in assay [5] (setting [18]) was 0%. The “Lethality no. died/treated animals, 2 hrs” value in [5] (setting [18]) was 0/16. In addition, the “Lethality %, 4 hrs” value in assay [5] (setting [18]) was 31%. Further, in assay [5] (setting [18]), the “Lethality no. died/treated animals, 4 hrs” value is reported as 5/16. Moreover, the IC50 turned out to be 83 µM on plasmin (PL); 120 µM on urokinase (UK); 0.2 µM at clot-bound factor Xa; 0.524 µM against clot-bound thrombin; 74 µM in [1]. For the same molecule, the “CT2 PT” value in the assay with citrated human plasma [2] is 1254 nM. Besides, the “CT2 APTT” value in the assay on citrated human plasma [3] is 333 nM. In addition, the “CT2 TT” value in [4] came to 120 nM.

Turning to `N=C(N)NCCC[C@@H](C=O)NC(=O)[C@@H]1CCCN1C(=O)C(O)CCc1ccccc1` (stereo partly drawn) [Compound C3, hPla-Pro-Arg-H], in [5] (setting [18]), the “Lethality %, 2 hrs” value was found to be 6%; the “Lethality no. died/treated animals, 2 hrs” value is 1/18; the “Lethality %, 4 hrs” value is listed as 56%; the “Lethality no. died/treated animals, 4 hrs” value is listed as 10/18. In [5] (endotoxin-treated rabbits, relative to endotoxin alone), this molecule registered an Increase in lethality of about 1.8 fold.

In the case of heparin, in [5] (setting [19]), the “Lethality %, 2 hrs” value stood at 0%; the “Lethality no. died/treated animals, 2 hrs” value is recorded as 0/17; the “Lethality %, 4 hrs” value stood at 35%; the “Lethality no. died/treated animals, 4 hrs” value is on record as 6/17. In assay [5] (setting [20]), the “Lethality %, 2 hrs” value was 0%; the “Lethality no. died/treated animals, 2 hrs” value was 0/19; the “Lethality %, 4 hrs” value was determined as 37%; the “Lethality no. died/treated animals, 4 hrs” value is recorded as 7/19.
